Assay results reported in PubChem BioAssay AID248 (DTP/NCI, 2004).
Values joined by “and” are separate entries in the source; they are usually repeats but may differ in a detail not shown here. Identical values can stand only once. Toxic doses and inconclusive results are not listed.

System: L1210 leukemia ip in BDF1 mice, survival T/C
Assay: NCI In Vivo Anticancer Drug Screen. Data for tumor model L1210 Leukemia (intraperitoneal) in B6D2F1 (BDF1) mice
Settings: endpoint: mean survival time, higher = longer survival
Outline: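 Read-out is survival time, reported as the treated-group measurement over the vehicle-control measurement.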

[1] = dose: 100.0 mg/kg/injection, schedule: Q01DX001 (ip), vehicle: Klucel (hydroxypropylcellulose) (HPC)
[2] = dose: 200.0 mg/kg/injection, schedule: Q01DX001 (ip), vehicle: Klucel (hydroxypropylcellulose) (HPC)
[3] = dose: 100.0 mg/kg/injection, schedule: Q01DX001 (ip), vehicle: saline
[4] = dose: 200.0 mg/kg/injection, schedule: Q01DX001 (ip), vehicle: saline
[5] = dose: 400.0 mg/kg/injection, schedule: Q01DX001 (ip), vehicle: saline
[6] = dose: 100.0 mg/kg/injection, schedule: Q04DX003 (ip), vehicle: Klucel (hydroxypropylcellulose) (HPC)
[7] = dose: 200.0 mg/kg/injection, schedule: Q04DX003 (ip), vehicle: Klucel (hydroxypropylcellulose) (HPC)
[8] = dose: 400.0 mg/kg/injection, schedule: Q04DX003 (ip), vehicle: Klucel (hydroxypropylcellulose) (HPC)
[9] = dose: 400.0 mg/kg/injection, schedule: Q01DX001 (ip), vehicle: Klucel (hydroxypropylcellulose) (HPC)

For `c1ccc2c(c1)C1=NCCN1c1ccccc1-2`, the T/C (dose: 10.0 mg/kg/injection, schedule: Q01DX009 (ip), vehicle: Klucel (hydroxypropylcellulose) (HPC)) was 101 % of control, the T/C (dose: 10.0 mg/kg/injection, schedule: Q04DX003 (ip), vehicle: Klucel (hydroxypropylcellulose) (HPC)) was 114 % of control and the T/C (dose: 20.0 mg/kg/injection, schedule: Q01DX009 (ip), vehicle: Klucel (hydroxypropylcellulose) (HPC)) was 111 % of control. For the same compound, the T/C (dose: 20.0 mg/kg/injection, schedule: Q04DX003 (ip), vehicle: Klucel (hydroxypropylcellulose) (HPC)) was 122 % of control, the T/C (dose: 40.0 mg/kg/injection, schedule: Q01DX009 (ip), vehicle: Klucel (hydroxypropylcellulose) (HPC)) was 105 % of control and the T/C (dose: 40.0 mg/kg/injection, schedule: Q04DX003 (ip), vehicle: Klucel (hydroxypropylcellulose) (HPC)) was 112 % of control.
`CC(=O)Nc1ccc(S(=O)(=O)NC2CCCCC2)cc1` was tested, and the T/C (dose: 50.0 mg/kg/injection, schedule: Q01DX001 (ip), vehicle: Klucel (hydroxypropylcellulose) (HPC)) was 94 % of control, the T/C [1] was 97 % of control and the T/C [2] was 100 % of control.
`Nc1ccc(S(=O)(=O)Nc2ccc([N+](=O)[O-])cn2)cc1` was tested, and the T/C [3] was 101 % of control, the T/C [4] was 104 % of control and the T/C [5] was 98 % of control.
For `COC(=O)c1cn2c(c1C(=O)OC)CCC2`, the T/C (dose: 12.5 mg/kg/injection, schedule: Q01DX009 (ip), vehicle: other) was 93 % of control, the T/C (dose: 25.0 mg/kg/injection, schedule: Q01DX009 (ip), vehicle: other) was 96 % of control and the T/C (dose: 50.0 mg/kg/injection, schedule: Q01DX009 (ip), vehicle: other) was 222 % of control. The T/C (dose: 59.0 mg/kg/injection, schedule: Q01DX009 (ip), vehicle: other) was 94 % of control and 113 % of control, the T/C (dose: 89.0 mg/kg/injection, schedule: Q01DX009 (ip), vehicle: other) was 99 % of control and 102 % of control and the T/C (dose: 100.0 mg/kg/injection, schedule: Q01DX009 (ip), vehicle: other) was 459 % of control. For the same compound, the T/C (dose: 133.0 mg/kg/injection, schedule: Q01DX009 (ip), vehicle: other) was 93 % of control and 106 % of control and the T/C (dose: 300.0 mg/kg/injection, schedule: Q01DX009 (ip), vehicle: other) was 116 % of control.
With `CC1(NCc2ccc(Cl)cc2)COP(=O)(NCc2ccccc2)OC1` (stereo not given) the T/C (dose: 50.0 mg/kg/injection, schedule: Q01DX001 (ip), vehicle: saline) was 101 % of control, the T/C [3] was 106 % of control and the T/C [4] was 95 % of control. The T/C [5] was 98 % of control.
In the case of `O=C1C2C(C(=O)N1c1ccccc1)C1c3ccccc3C2C2CCCCN21` (stereo not given), the T/C (dose: 25.0 mg/kg/injection, schedule: Q01DX009 (ip), vehicle: Klucel (hydroxypropylcellulose) (HPC)) was 102 % of control, the T/C (dose: 50.0 mg/kg/injection, schedule: Q01DX009 (ip), vehicle: Klucel (hydroxypropylcellulose) (HPC)) was 105 % of control and the T/C (dose: 100.0 mg/kg/injection, schedule: Q01DX009 (ip), vehicle: Klucel (hydroxypropylcellulose) (HPC)) was 92 % of control. The T/C [6] was 92 % of control.
For `COc1cccc2cc(C3(c4ccccc4)OC(=O)c4ccccc43)ccc12` (stereo not given), the T/C (dose: 100.0 mg/kg/injection, schedule: Q01DX001 (ip), vehicle: other) was 90 % of control, the T/C (dose: 200.0 mg/kg/injection, schedule: Q01DX001 (ip), vehicle: other) was 94 % of control and the T/C (dose: 400.0 mg/kg/injection, schedule: Q01DX001 (ip), vehicle: other) was 95 % of control.
For `N#Cc1nc2nc(C(F)(F)F)[nH]c2nc1C#N`, the T/C (dose: 12.5 mg/kg/injection, schedule: Q01DX009 (ip), vehicle: saline with Tween-80) was 101 % of control, the T/C (dose: 12.5 mg/kg/injection, schedule: Q04DX003 (ip), vehicle: saline with Tween-80) was 120 % of control and the T/C (dose: 25.0 mg/kg/injection, schedule: Q01DX009 (ip), vehicle: saline with Tween-80) was 103 % of control. For the same compound, the T/C (dose: 25.0 mg/kg/injection, schedule: Q04DX003 (ip), vehicle: saline with Tween-80) was 103 % of control and the T/C (dose: 50.0 mg/kg/injection, schedule: Q01DX009 (ip), vehicle: saline with Tween-80) was 93 % of control.
In the case of `O=C(Nc1cc([N+](=O)[O-])ccc1F)Oc1ccccc1F`, the T/C [6] was 102 % of control, the T/C [7] was 94 % of control and the T/C [8] was 98 % of control.
With `Cc1cc(C)c(S(=O)(=O)c2ccc([N+](=O)[O-])c3ccccc23)c(C)c1` the T/C [1] was 107 % of control, the T/C [2] was 91 % of control and the T/C [9] was 101 % of control.
For `CC(=O)O[C@H]1CC[C@]2(C)[C@H]3CC[C@]4(C)[C@@H](OC(C)=O)CC[C@H]4[C@@H]3[C@@H](C)[C@]2(O)C1`, the T/C (dose: 50.0 mg/kg/injection, schedule: Q01DX001 (sc), vehicle: steriod suspending solution) was 102 % of control, the T/C (dose: 100.0 mg/kg/injection, schedule: Q01DX001 (sc), vehicle: steriod suspending solution) was 100 % of control and the T/C (dose: 200.0 mg/kg/injection, schedule: Q01DX001 (sc), vehicle: steriod suspending solution) was 102 % of control. The T/C (dose: 400.0 mg/kg/injection, schedule: Q01DX001 (sc), vehicle: steriod suspending solution) was 105 % of control.
With `O=S(=O)(c1ccc(NC(=S)Oc2ccccc2)cc1)c1ccc(NC(=S)Oc2ccccc2)cc1` the T/C [3] was 104 % of control and the T/C [4] was 104 % of control.
In the case of `O=C1/C(=C/c2ccc(O)c(O)c2)CCc2ccccc21`, the T/C (dose: 30.0 mg/kg/injection, schedule: Q01DX015 (ip), vehicle: saline) was 97 % of control, the T/C (dose: 60.0 mg/kg/injection, schedule: Q01DX015 (ip), vehicle: saline) was 94 % of control and the T/C (dose: 120.0 mg/kg/injection, schedule: Q01DX015 (ip), vehicle: saline) was 94 % of control. The T/C (dose: 240.0 mg/kg/injection, schedule: Q01DX015 (ip), vehicle: saline) was 100 % of control.
In the case of `NCC(=O)Nc1ccc(Cl)cc1C(=O)c1ccc[nH]1`, the T/C (dose: 100.0 mg/kg/injection, schedule: Q01DX009 (ip), vehicle: saline with Tween-80) was 93 % of control, the T/C (dose: 200.0 mg/kg/injection, schedule: Q01DX009 (ip), vehicle: saline with Tween-80) was 87 % of control and the T/C (dose: 400.0 mg/kg/injection, schedule: Q01DX009 (ip), vehicle: saline with Tween-80) was 90 % of control.
In the case of `CC1Oc2ccccc2OC1CN1CCC2(CC1)C(=O)N(C)CN2c1ccccc1` (stereo not given), the T/C [1] was 88 % of control, the T/C [2] was 99 % of control and the T/C [9] was 86 % of control.
With `CC1(C)OC2C(COC(=O)Oc3ccccc3)OC(n3cnc4c(=O)[nH]c(N)nc43)C2O1` (stereo not given) the T/C (dose: 100.0 mg/kg/injection, schedule: Q01DX005 (ip), vehicle: saline) was 106 % of control and the T/C (dose: 200.0 mg/kg/injection, schedule: Q01DX005 (ip), vehicle: saline) was 97 % of control.
In the case of `COc1ccc(/C=C2\N=C(c3ccc(Cl)cc3)OC2=O)cc1Br`, the T/C (dose: 100.0 mg/kg/injection, schedule: Q04DX002 (ip), vehicle: saline) was 101 % of control, the T/C (dose: 200.0 mg/kg/injection, schedule: Q04DX002 (ip), vehicle: saline) was 93 % of control and the T/C (dose: 400.0 mg/kg/injection, schedule: Q04DX002 (ip), vehicle: saline) was 108 % of control.
In the case of `CC(CCF)C(N)C(=O)O` (stereo not given), the T/C (dose: 3.0 mg/kg/injection, schedule: Q01DX009 (ip), vehicle: saline) was 98 % of control, the T/C (dose: 6.0 mg/kg/injection, schedule: Q01DX009 (ip), vehicle: saline) was 100 % of control and the T/C (dose: 10.0 mg/kg/injection, schedule: Q01DX001 (ip), vehicle: saline) was 91 % of control. For the same compound, the T/C (dose: 12.0 mg/kg/injection, schedule: Q01DX009 (ip), vehicle: saline) was 102 % of control, the T/C (dose: 12.5 mg/kg/injection, schedule: Q01DX009 (ip), vehicle: saline) was 100 % of control and the T/C (dose: 19.0 mg/kg/injection, schedule: Q01DX001 (ip), vehicle: saline) was 95 % of control. For the same compound, the T/C (dose: 37.5 mg/kg/injection, schedule: Q01DX001 (ip), vehicle: saline) was 113 % of control and the T/C (dose: 38.0 mg/kg/injection, schedule: Q01DX001 (ip), vehicle: saline) was 91 % of control.
For `CC(O)[CH2][Sb]([Br])([Br])([c]1ccccc1)[c]1ccccc1` (stereo not given), the T/C (dose: 5.0 mg/kg/injection, schedule: Q04DX002 (ip), vehicle: saline with Tween-80) was 97 % of control, the T/C (dose: 10.0 mg/kg/injection, schedule: Q04DX002 (ip), vehicle: saline with Tween-80) was 104 % of control and the T/C (dose: 20.0 mg/kg/injection, schedule: Q04DX002 (ip), vehicle: saline with Tween-80) was 104 % of control.
With `CN(C)CCN1C(=O)c2ccccc2C(C(C)(C)[N+](=O)[O-])c2ccccc21` (stereo not given) the T/C [6] was 102 % of control, the T/C [7] was 98 % of control and the T/C [8] was 93 % of control.
With `c1ccc(C(c2ccccc2)C2CSC2)cc1` the T/C (dose: 50.0 mg/kg/injection, schedule: Q04DX002 (ip), vehicle: gum acacia) was 93 % of control, the T/C (dose: 100.0 mg/kg/injection, schedule: Q04DX002 (ip), vehicle: gum acacia) was 100 % of control and the T/C (dose: 200.0 mg/kg/injection, schedule: Q04DX002 (ip), vehicle: gum acacia) was 93 % of control.
